According to patent publication US20250084079A1, “COMPOSITIONS AND METHODS FOR INHIBITION OF RAS” (TheRas, Inc., priority 2022, published 2025):
Where two headings read alike, the source gives them in different places.

Legend:
[1] = molecular target: T1, Avi-KRAS G12D (1-169) GppNHp/RAF1 RBD-3xFLAG (52-151) (Homo sapiens, UniProt P01116, G12D); assay: RAS-effector PPI HTRF disruption assay, Raf1-GppNHp-KRAS G12D; format: biochemical
T1 construct: 100 nM Avi-KRAS G12D (1-169) GppNHp
Outline: (§1)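 HTRF read (ex 320, em 615 nm) after 1 h compound/protein-complex incubation plus 1 h with detection reagents, room temperature, in Tris pH 7.5, 5 mM MgCl2, 1 mM TCEP, 10% DMSO. Complexes: WT and G12V RAF1 at 50 nM, G12D RAF1 100 nM, G12D/Q25A-PI3KCA 375 nM. Compounds 100-0.02 μM; IC50 from % activity vs DMSO.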

GppNHp KRAS G12D = GppNHp KRAS G12D (Homo sapiens, UniProt P01116, G12D); assay: SPR binding affinity to GppNHp KRAS G12D (Biacore S200); conditions: GppNHp-loaded KRAS G12D, steady state KD
Chain of GppNHp KRAS G12D (P01116 1-188 isoform P01116-2 G12D): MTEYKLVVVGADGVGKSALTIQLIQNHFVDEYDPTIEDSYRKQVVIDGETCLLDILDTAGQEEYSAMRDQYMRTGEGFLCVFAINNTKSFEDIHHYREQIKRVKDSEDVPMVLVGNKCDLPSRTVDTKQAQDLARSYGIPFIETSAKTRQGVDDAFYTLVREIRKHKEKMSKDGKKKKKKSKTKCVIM
Description: (§2) The affinity of compounds of the present disclosure to RAS ligands was assessed using surface plasmon resonance (SPR) binding analysis using a Biacore S200 (GE Healthcare Life Sciences) instrument. The SPR binding analysis employed the following reagents and protocols:
(§3) Buffer preparation: To make 0.5 L add required amounts of stocks for: 20 mM Hepes, 150 mM NaCl, 5 mM MgCl2, 1 mM TCEP, 0.05% P20, and 5 μM nucleotide. Adjust pH to 7.4, then bring volume up to 475 mL 1.05×Filter through 0.2 μm cellulose acetate membrane. Remove a volume of buffer as No DMSO Buffer 1.05× and set aside. Add appropriate volume of DMSO to buffer to a final concentration 5% DMSO.
(§4) Chip preparation: Prime 2× with 5% DMSO buffer. Allow system to flow on standby throughout the day.
(§5) Sample preparation: Make a 20× compound solution in 100% DMSO of highest compound concentration to be screened (2 mM for final 100 μM compound). Add appropriate volume of 1.05× buffer without DMSO to give 5% DMSO and mix by pipetting. Centrifuge sample 18,000×g 5 min 25° C. Make appropriate serial dilutions from the highest concentration into 5% DMSO running buffer for the concentrations needed. Prepare 5.8% DMSO and 4.5% DMSO solvent correction solutions using buffer without DMSO. Make two more solvent corrections by mixing 200 μL 4.5% 500 μL 5.8%, and 400 μL 4.5% 300 μL 5.8%
(§6) Capture Avi-taggedprotein: Thaw protein stock on ice, aliquot into single use size and freeze at −80° C. for future use. Dilute protein (avi-KRAS WT, avi-KRAS-G12D, avi-KRAS-G12V, or avi-RhoA) appropriately, to 20 μg/mL to begin in 5% DMSO buffer. Manually inject at 10 μL/min 12 second contact time. Adjust flow and or contact time to achieve desired level of captured protein. When desired level of protein is captured, flow for 10 minutes to stabilize signal.
(§7) General Binding Level Screen Method: Choose LMW screen template in Fragment/LMW subfolder in Binding screen folder. 30 μL/min high performance injection, 60 sec contact and dissociation time, carry over control, extra wash with 50% DMSO for each injection. Fifteen Startup cycles to condition. Control samples before and after compound samples. For GppNHp loaded KRAS, control is 20 μM Raf1 RBD domain. Adjust this sample to final 5% DMSO to match running buffer. This process is performed at a temperature of 25° C. using a single chip per experiment.
(§8) Binding affinity determination: Compounds selected from the binding level screen are evaluated in a dose response to determine the binding affinity (KD). Serial dilutions of compounds are prepared and injected over the sensor chip using a flow rate of 30 μL/min with a 60 second contact and dissociation time. After double referencing of the sensorgrams the total level of compound binding at each concentration is calculated. The steady state binding affinity is calculated with a Langmuir binding model assuming a 1:1 interaction with a constrained Rmax using the BIAevaluation software.

[2] = molecular target: T2, Avi-KRAS G12V (1-169) GppNHp/RAF1 RBD-3xFLAG (52-151) (Homo sapiens, UniProt P01116, G12V); assay: RAS-effector PPI HTRF disruption assay, Raf1-GppNHp-KRAS G12V; format: biochemical
T2 construct: 50 nM Avi-KRAS G12V (1-169) GppNHp
T2 sequence (P01116 1-169 isoform P01116-2 G12V): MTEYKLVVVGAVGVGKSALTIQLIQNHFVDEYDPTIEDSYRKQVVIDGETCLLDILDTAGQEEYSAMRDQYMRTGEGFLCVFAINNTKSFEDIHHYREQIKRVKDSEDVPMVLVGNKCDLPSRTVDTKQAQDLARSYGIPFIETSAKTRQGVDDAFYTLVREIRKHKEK
Outline: as §1

[3] = molecular target: T3, Avi-KRAS G12D/Q25A (1-169) GppNHp/3xFLAG-PI3KCA (157-299) (Homo sapiens, UniProt P01116, G12D/Q25A); assay: RAS-effector PPI HTRF disruption assay, PI3KCA-GppNHp-KRAS G12D/Q25A; format: biochemical
T3 construct: 375 nM Avi-KRAS G12D/Q25A (1-169) GppNHp
T3 sequence (P01116 1-169 isoform P01116-2 G12D/Q25A): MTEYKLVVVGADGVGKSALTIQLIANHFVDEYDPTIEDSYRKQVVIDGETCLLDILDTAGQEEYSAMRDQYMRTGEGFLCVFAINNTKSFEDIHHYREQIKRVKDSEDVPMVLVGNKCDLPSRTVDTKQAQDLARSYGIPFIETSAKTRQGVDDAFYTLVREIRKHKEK
Outline: as §1

[4] = system: pERK in GP2d cells (KRAS G12D); assay: Cell-based pERK HTRF assay in GP2d cell; conditions: 60 min incubation
Outline: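 GP2d cells (KRAS G12D) in DMEM/10% FBS were seeded the day before and exposed to compounds for 60 min in 0.25% DMSO. The 9-point curve started at 1 μM with half-log steps. Lysates were read for pERK by HTRF (Eu cryptate/d2 antibodies) after 4–24 h at room temperature, with excitation at 320 nm and emission at 615 nm.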

[5] = molecular target: T4, Avi-KRAS WT (1-169) GppNHp/RAF1 RBD-3xFLAG (52-151) (Homo sapiens, UniProt P01116); assay: RAS-effector PPI HTRF disruption assay, Raf1-GppNHp-KRAS WT; format: biochemical
T4 construct: 50 nM Avi-KRAS WT (1-169) GppNHp
T4 sequence (P01116 1-169 isoform P01116-2): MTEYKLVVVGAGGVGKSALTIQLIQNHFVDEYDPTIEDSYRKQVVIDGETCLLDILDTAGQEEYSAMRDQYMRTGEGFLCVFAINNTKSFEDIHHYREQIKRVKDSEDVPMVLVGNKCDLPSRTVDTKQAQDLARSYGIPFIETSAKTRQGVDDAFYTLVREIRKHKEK
Outline: as §1

GDP KRAS G12D = GDP KRAS G12D (Homo sapiens, UniProt P01116, G12D); assay: SPR binding affinity to GDP KRAS G12D (Biacore S200); conditions: GDP-loaded KRAS G12D, steady state KD
Chain of GDP KRAS G12D (P01116 1-188 isoform P01116-2 G12D): as the sequence (P01116 1-188 isoform P01116-2 G12D) above
Description: as §2, §3, §4, §5, §6, §7, §8

T1 sequence (P01116 1-169 isoform P01116-2 G12D): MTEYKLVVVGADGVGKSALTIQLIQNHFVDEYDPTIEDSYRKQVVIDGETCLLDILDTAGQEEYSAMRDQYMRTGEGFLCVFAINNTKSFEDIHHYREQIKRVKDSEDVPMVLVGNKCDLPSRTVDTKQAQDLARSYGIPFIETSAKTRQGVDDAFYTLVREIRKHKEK

SMILES | IC50 [1] | Kd (GppNHp KRAS G12D) | IC50 [2] | IC50 [3] | IC50 ([4]; GP2d, 1 h) | IC50 [5] | Kd (GDP KRAS G12D) | IC50 ([4]; read-out: pERK-Gp2D-1 hr)
C[C@H]1C[C@@H](Oc2nc(OC[C@@]34CCCN3C[C@H](F)C4)nc3c(F)c(-c4ccc(F)c5sc(N)nc45)c(C(F)(F)F)cc23)CN1 [Compound 7] | 100 to 1000 nM | 1000 to 10000 nM | > 10000 nM | 1000 to 10000 nM | ≤ 100 nM | 1000 to 10000 nM | – | –
Nc1nc2c(-c3c(C(F)(F)F)cc4c(O[C@H]5CNC[C@@H]5F)nc(OC[C@@]56CCCN5C[C@H](F)C6)nc4c3F)ccc(F)c2s1 (atropisomer, axis not shown) [Compound 17] | 100 to 1000 nM | 100 to 1000 nM | 1000 to 10000 nM | 100 to 1000 nM | 100 to 1000 nM | 1000 to 10000 nM | ≤ 100 nM | –
Nc1nc2c(-c3c(C(F)(F)F)cc4c(O[C@H]5CNC[C@@H]5F)nc(OC[C@@]56CCCN5C[C@H](F)C6)nc4c3F)ccc(F)c2s1 (atropisomer, axis not shown) [Compound 18] | > 10000 nM | > 10000 nM | > 10000 nM | > 10000 nM | – | > 10000 nM | 100 to 1000 nM | –
C[C@@H]1CNCC1Oc1nc(OC[C@@]23CCCN2C[C@H](F)C3)nc2c(F)c(-c3ccc(F)c4sc(N)nc34)c(C(F)(F)F)cc12 (stereo partly drawn) [Compound 16] | 1000 to 10000 nM | – | 1000 to 10000 nM | 1000 to 10000 nM | – | 1000 to 10000 nM | – | 100 to 1000 nM
N#Cc1c(N)sc2c(F)ccc(-c3cc4nc(OC[C@@]56CCCN5C[C@H](F)C6)nc(O[C@H]5CNC[C@H]5F)c4cc3C(F)(F)F)c12 [Compound 49] | 100 to 1000 nM | – | 1000 to 10000 nM | 100 to 1000 nM | ≤ 100 nM | 1000 to 10000 nM | – | –
N#Cc1c(N)sc2c(F)ccc(-c3c(F)cc4c(O[C@@H]5CCNC5)nc(OC[C@@]56CCCN5C[C@H](F)C6)nc4c3F)c12 [Compound 77] | > 10000 nM | – | > 10000 nM | > 10000 nM | > 1000 nM | > 10000 nM | – | –
C[C@H]1NCC[C@@H]1Oc1nc(OC[C@@]23CCCN2C[C@H](F)C3)nc2c(F)c(-c3ccc(F)c4sc(N)c(C#N)c34)c(Cl)cc12 [Compound 59] | 100 to 1000 nM | – | 100 to 1000 nM | 100 to 1000 nM | ≤ 100 nM | 100 to 1000 nM | – | –
Nc1nc2c(-c3ncc4c(O[C@@H]5CCNC5)nc(OC[C@@]56CCCN5C[C@H](F)C6)nc4c3F)c(F)cc(F)c2s1 [Compound 32] | > 10000 nM | – | > 10000 nM | > 10000 nM | > 1000 nM | > 10000 nM | – | –
Nc1nc2c(-c3c(C(F)(F)F)cc4c(O[C@H]5CN[C@@H](CO)C5)nc(OCC56CCCN5C[C@H](F)C6)nc4c3F)ccc(F)c2s1 (stereo partly drawn) [Compound 58] | 1000 to 10000 nM | – | > 10000 nM | 100 to 1000 nM | 100 to 1000 nM | 1000 to 10000 nM | – | –
N#Cc1c(N)sc2c(F)ccc(-c3c(Cl)cc4c(O[C@@H]5CNC[C@H]5F)nc(OC[C@@]56CCCN5C[C@H](F)C6)nc4c3F)c12 (atropisomer, axis not shown) [Compound 64] | > 10000 nM | – | > 10000 nM | > 10000 nM | > 1000 nM | > 10000 nM | – | –
N#Cc1c(N)sc2c(F)ccc(-c3ccc4c(O[C@H]5CNC[C@H]5F)nc(OC[C@@]56CCCN5C[C@H](F)C6)nc4c3F)c12 [Compound 66] | 1000 to 10000 nM | – | > 10000 nM | 1000 to 10000 nM | 100 to 1000 nM | 1000 to 10000 nM | – | –
N#Cc1c(N)sc2c(F)ccc(-c3c(C(F)(F)F)cc4c(O[C@H]5CNC[C@@H]5F)nc(OC[C@@]56CCCN5C[C@H](F)C6)nc4c3F)c12 [Compound 53] | 100 to 1000 nM | – | 1000 to 10000 nM | 100 to 1000 nM | ≤ 100 nM | 100 to 1000 nM | – | –
C[C@@H]1C[C@@H](Oc2nc(OC[C@@]34CCCN3C[C@H](F)C4)nc3c(F)c(-c4ccc(F)c5sc(N)c(C#N)c45)ccc23)CN1 [Compound 56] | 1000 to 10000 nM | – | > 10000 nM | 100 to 1000 nM | 100 to 1000 nM | 1000 to 10000 nM | – | –
C[C@H]1NCC[C@H]1Oc1nc(OC[C@@]23CCCN2C[C@H](F)C3)nc2c(F)c(-c3ccc(F)c4sc(N)c(C#N)c34)ncc12 [Compound 98, 2-amino-7-fluoro-4-(8-fluoro-2-(((2R,7aS)-2-fluorotetrahydro-1H-pyrrolizin-7a(5H)-yl)methoxy)-4-(((2R,3R)-2-methylpyrrolidin-3-yl)oxy)pyrido[4,3-d]pyrimidin-7-yl)benzo[b]thiophene-3-carbonitrile] | 1000 to 10000 nM | – | 1000 to 10000 nM | > 10000 nM | 100 to 1000 nM | 1000 to 10000 nM | – | –
C[C@@H]1C[C@@H](Oc2nc(OC[C@@]34CCCN3C[C@H](F)C4)nc3c(F)c(-c4ccc(F)c5sc(N)nc45)c(C(F)(F)F)cc23)CN1 (atropisomer, axis not shown) [Compound 21] | > 10000 nM | > 10000 nM | > 10000 nM | > 10000 nM | – | > 10000 nM | 1000 to 10000 nM | –
N#Cc1c(N)sc2c(F)ccc(-c3ncc4c(O[C@H]5CNC[C@H]5F)nc(OC[C@@]56CCCN5C[C@H](F)C6)nc4c3F)c12 [Compound 51] | 1000 to 10000 nM | – | > 10000 nM | 1000 to 10000 nM | > 1000 nM | > 10000 nM | – | –
C[C@H]1NCC[C@H]1Oc1nc(OCC23CCCN2C[C@H](F)C3)nc2c(F)c(-c3ccc(F)c4sc(N)nc34)c(C(F)(F)F)cc12 (stereo partly drawn) [Compound 25] | 100 to 1000 nM | – | 1000 to 10000 nM | 100 to 1000 nM | ≤ 100 nM | 100 to 1000 nM | – | –
N#Cc1c(N)sc2c(F)ccc(-c3c(Cl)cc4c(O[C@@H]5CN[C@@H](CO)C5)nc(OC[C@@]56CCCN5C[C@H](F)C6)nc4c3F)c12 (atropisomer, axis not shown) [Compound 69] | ≤ 100 nM | – | 100 to 1000 nM | 100 to 1000 nM | – | 100 to 1000 nM | – | 100 to 1000 nM
C[C@H]1NCC[C@H]1Oc1nc(OC[C@@]23CCCN2C[C@H](F)C3)nc2cc(-c3ccc(F)c4sc(N)nc34)c(C(F)(F)F)cc12 [Compound 35] | 100 to 1000 nM | – | 1000 to 10000 nM | > 10000 nM | 100 to 1000 nM | 1000 to 10000 nM | – | –
Nc1nc2c(-c3ncc4c(O[C@@H]5CCNC5)nc(OC[C@@]56CCCN5C[C@H](F)C6)nc4c3F)ccc(F)c2s1 [Compound 24, 7-fluoro-4-(8-fluoro-2-(((2R,7aS)-2-fluorotetrahydro-1H-pyrrolizin-7a(5H)-yl)methoxy)-4-(((R)-pyrrolidin-3-yl)oxy)pyrido[4,3-d]pyrimidin-7-yl)benzo[d]thiazol-2-amine] | > 10000 nM | – | > 10000 nM | > 10000 nM | > 1000 nM | > 10000 nM | – | –
